Test results taken from patent publication US9770469B2, “Methods of reprogramming renal cells” (Tel HaShomer Medical Research Infrastructure and Services …, priority 2009, dated 2017).

System: human adult kidney cells
Assay: qRT-PCR gene expression after TSA/AzaC or VPA treatment
Type: cell-based
Details: HAK cells, 24 h VPA, particularly in VPA-2 mM

CCCC(CCC)C(=O)O [VPA, valproic acid]
Oct4 mRNA expression change: significantly up-regulated
